What was measured:
FAAH = molecular target: T1, FAAH (Homo sapiens, UniProt O00519); experiment: FAAH fluorescence-based inhibitory assay; format: biochemical
T1 sequence (O00519 1-579): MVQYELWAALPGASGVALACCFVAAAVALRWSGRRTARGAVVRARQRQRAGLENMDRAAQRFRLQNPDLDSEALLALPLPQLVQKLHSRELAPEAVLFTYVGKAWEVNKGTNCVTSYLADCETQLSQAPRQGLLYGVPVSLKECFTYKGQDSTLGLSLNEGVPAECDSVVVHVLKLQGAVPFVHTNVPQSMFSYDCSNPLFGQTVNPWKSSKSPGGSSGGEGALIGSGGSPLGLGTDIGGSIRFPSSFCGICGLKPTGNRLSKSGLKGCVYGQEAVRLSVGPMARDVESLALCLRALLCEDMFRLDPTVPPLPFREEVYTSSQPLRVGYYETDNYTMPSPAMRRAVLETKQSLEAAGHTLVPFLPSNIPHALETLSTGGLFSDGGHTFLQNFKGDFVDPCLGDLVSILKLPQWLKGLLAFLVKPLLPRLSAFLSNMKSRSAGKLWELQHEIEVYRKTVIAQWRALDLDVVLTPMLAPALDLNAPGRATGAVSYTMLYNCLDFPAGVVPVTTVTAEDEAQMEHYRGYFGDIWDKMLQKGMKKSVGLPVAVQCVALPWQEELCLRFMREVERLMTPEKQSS

FABP-3 = molecular target: T2, FABP-3 (Homo sapiens, UniProt P05413); experiment: FABP-3 ELISA inhibitory assay; format: biochemical
T2 construct: purchased Neovateinbio PT-452
T2 sequence (P05413 whole entry): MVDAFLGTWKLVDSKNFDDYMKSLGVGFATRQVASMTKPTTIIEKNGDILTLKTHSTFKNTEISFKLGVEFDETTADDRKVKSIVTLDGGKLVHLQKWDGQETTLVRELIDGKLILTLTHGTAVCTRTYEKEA

FABP-5 = molecular target: T3, FABP-5 (Homo sapiens, UniProt Q01469); experiment: FABP-5 ELISA inhibitory assay; format: biochemical
T3 construct: purchased Raybiotech 268-10276-1
T3 sequence (Q01469 whole entry): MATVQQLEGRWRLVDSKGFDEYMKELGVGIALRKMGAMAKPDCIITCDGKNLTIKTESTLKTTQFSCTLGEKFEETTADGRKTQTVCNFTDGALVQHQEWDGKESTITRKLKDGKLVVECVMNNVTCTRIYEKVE

MAGL = molecular target: T4, MAGL (Homo sapiens, UniProt Q99685); experiment: MAGL inhibitory assay; format: biochemical
T4 construct: purchased Cayman 10007812
T4 sequence (Q99685 1-303): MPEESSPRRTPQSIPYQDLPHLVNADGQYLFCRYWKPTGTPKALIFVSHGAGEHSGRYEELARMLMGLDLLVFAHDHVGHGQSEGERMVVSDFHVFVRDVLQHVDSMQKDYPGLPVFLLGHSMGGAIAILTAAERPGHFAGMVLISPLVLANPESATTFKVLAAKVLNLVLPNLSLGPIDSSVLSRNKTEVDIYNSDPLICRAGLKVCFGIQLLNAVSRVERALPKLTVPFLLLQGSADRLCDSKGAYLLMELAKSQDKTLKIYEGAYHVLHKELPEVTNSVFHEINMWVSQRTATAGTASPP
Protocol: Each study was performed in duplicate and the results averaged.
The final concentration in each well was 10 μl of sample, 5.6 μM MAGL (Cayman Catalog #10007812) and 23.6 μM 2-Arachidonoyl Glycerol (Cayman catalog #62160).

HDAC 4 = HDAC 4 (Homo sapiens, UniProt P56524); experiment: HDAC 4 fluorogenic assay kit
Chain of HDAC 4 (P56524 whole entry): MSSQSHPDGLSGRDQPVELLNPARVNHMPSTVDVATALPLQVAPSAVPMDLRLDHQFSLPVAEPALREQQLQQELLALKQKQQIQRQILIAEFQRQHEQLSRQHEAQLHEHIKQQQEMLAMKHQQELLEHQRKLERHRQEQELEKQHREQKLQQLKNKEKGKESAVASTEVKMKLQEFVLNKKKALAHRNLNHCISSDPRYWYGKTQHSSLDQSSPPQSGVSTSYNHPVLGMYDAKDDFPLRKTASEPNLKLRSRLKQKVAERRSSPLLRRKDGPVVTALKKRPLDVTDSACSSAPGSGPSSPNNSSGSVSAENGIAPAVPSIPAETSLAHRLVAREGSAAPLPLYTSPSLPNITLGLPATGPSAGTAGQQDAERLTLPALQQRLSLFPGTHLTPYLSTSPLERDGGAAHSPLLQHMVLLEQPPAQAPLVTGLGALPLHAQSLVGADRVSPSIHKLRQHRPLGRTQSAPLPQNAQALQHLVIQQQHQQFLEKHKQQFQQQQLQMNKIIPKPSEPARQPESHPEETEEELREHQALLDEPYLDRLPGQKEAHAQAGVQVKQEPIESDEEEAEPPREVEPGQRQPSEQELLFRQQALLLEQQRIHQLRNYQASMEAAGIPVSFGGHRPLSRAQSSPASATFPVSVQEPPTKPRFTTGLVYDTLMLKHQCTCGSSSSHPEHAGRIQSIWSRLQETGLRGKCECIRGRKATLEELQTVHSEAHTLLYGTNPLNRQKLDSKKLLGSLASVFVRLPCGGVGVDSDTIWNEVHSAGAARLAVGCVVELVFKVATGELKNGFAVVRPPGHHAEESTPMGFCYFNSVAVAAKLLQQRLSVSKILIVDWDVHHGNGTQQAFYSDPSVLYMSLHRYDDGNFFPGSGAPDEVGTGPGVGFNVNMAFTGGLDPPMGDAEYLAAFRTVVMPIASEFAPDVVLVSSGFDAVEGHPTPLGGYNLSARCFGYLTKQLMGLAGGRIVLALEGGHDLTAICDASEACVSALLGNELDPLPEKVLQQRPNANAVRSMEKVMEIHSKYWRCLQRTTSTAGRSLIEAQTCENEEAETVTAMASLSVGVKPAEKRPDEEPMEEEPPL
Protocol: Test materials were stored at room temperature and stock solutions were prepared at 20 mg/ml in DMSO. Further dilutions were made in sterile distilled water immediately before being added to the reaction mixture containing a substrate, and the reaction was triggered by the addition of purified HDAC enzymes, Double distilled water was the negative control and trichostatin (1.5 ug/ml) was used as a positive control for validation of each study. The test procedure was as directed in the assay kits. The products of the reactions were measured by fluorometry at ex/em 350/450 nm using multi-well plate fluorometer Cytofluor 4000 (Applied Biosystem, Foster City, CA) or using SpectraMax i3× Multi-Mode Detection Platform from Molecular Devices (Sunnyvale, CA).
Statistical significance was assessed with a two-tail Student test. Deviations of ≤20% as compared to water control with p values below 0.05 were considered statistically significant.

calcium dilysinate [Ca dilysinate] was tested, and the “FAAH IC50” value (FAAH) was 445.1 µg/mL, the “FABP-3 IC50” value (FABP-3) was 208.6 µg/mL and the “FABP-5 IC50” value (FABP-5) was 871.4 µg/mL. The “MAGL IC50” value (MAGL) was 856.0 µg/mL, the “HDAC 4 activity, % of water-treated controls” value (“HDAC 4 activity, %” below) (HDAC 4; 25 ug/ml) was 109% and the “HDAC 4 activity, %” value (HDAC 4; 50 ug/ml) was 101%. For the same substance, the “HDAC 4 activity, %” value (HDAC 4; 100 ug/ml) was 107%.

Reference: patent US20260041620A1, “NOVEL AMINO ACID BASED SALTS, COMPOSITIONS AND METHODS FOR TREATING SKIN AND IMPROVING SKIN REJUVENATION AND LONGEVITY” (Sytheon Ltd, priority 2023, published 2026)
